Publication PMC11568248, “Targeting Candida albicans O-acetyl-L-homoserine sulfhydrylase (Met15p) in antifungal treatment” (Scientific Reports, 2024)

T1: CaMet15NHp (Candida albicans, UniProt Q59US5)
T1 construct: gene MET15; mostly homotetramer
T1 sequence (Q59US5 2-440): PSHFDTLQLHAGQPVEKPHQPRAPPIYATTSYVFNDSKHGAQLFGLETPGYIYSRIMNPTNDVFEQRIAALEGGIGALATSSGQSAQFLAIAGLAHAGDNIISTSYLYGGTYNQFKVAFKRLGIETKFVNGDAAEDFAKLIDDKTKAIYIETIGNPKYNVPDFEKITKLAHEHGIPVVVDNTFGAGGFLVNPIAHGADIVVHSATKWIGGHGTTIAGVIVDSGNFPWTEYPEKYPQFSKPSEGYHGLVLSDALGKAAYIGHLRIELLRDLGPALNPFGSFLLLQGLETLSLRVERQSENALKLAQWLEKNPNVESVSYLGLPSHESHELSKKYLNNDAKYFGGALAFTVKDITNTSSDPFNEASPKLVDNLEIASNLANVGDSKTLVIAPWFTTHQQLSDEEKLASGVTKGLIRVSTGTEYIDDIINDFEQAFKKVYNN

B1: CaMet15NHp (Candida albicans SC5314) (protein)
chain: T1 sequence (Q59US5 2-440)

Legend:
CaMet15NHp [1] = biological target: T1, CaMet15NHp; assay: RP-HPLC-DAD of L-homocysteine derivatized with DTNB; type: biochemical; conditions: read-out: % inhibition at 10 mM
CaMet15NHp [2] = biological target: T1, CaMet15NHp; assay: as above; type: biochemical; conditions: substrates OAH and Na2S, 0.2 mM PLP, pH 8.0, 37 °C; racemate
S = assay: purified protein; conditions: O-acetyl-L-homoserine co-substrate, 0.2 mM PLP, 50 mM Tris-HCl pH 8.0, 100 mM NaCl, 37 °C, sulfide ion donor
purified protein = substrate: CC(=O)OCC[C@H](N)C(=O)O; assay: purified protein; conditions: Na2S co-substrate, 0.2 mM PLP, 50 mM Tris-HCl pH 8.0, 100 mM NaCl, 37 °C

Row | Molecule | inhibition at 10000 µM (CaMet15NHp [1]) | also measured
1 | CC(C)(S)[C@H](N)C(=O)O [L-PEN, L-penicillamine] | > 50% | –
2 | C=CCC(N)C(=O)O (racemic) [DL-ALG, DL-2-allylglycine] | – | % inhibition at 10 mM (CaMet15NHp [2]): DL-2-allyglycine (DL-ALG), and DL-glufosinate (DL-GLUF) were slightly inhibitory
3 | CaMet15NHp (Candida albicans SC5314) | – | Km (S): 0.027 ± 0.0021 mM
4 | CSCC[C@H](N)C(=O)O [L-Met, L-methionine] | < 15% | –
5 | CC(=O)NCC[C@H](N)C(=O)O [AcDAB, N[4]-acetyl-(S)−2,4-diaminobutanoic acid] | ~70% | –
6 | N[C@@H](CCNC(=O)c1ccccc1)C(=O)O [BzDAB, 3-benzamido-1-carboxypropan-1-aminium chloride] | ~44% | –
7 | CP(=O)(O)CCC(N)C(=O)O (racemic) [DL-GLUF, DL-glufosinate] | – | % inhibition at 10 mM (CaMet15NHp [2]): DL-2-allyglycine (DL-ALG), and DL-glufosinate (DL-GLUF) were slightly inhibitory
8 | B1 | – | Km (purified protein): 9.12 ± 1.77 mM
